Test results from paper PMC7385619, “A triple action CDK4/6-PI3K-BET inhibitor with augmented cancer cell cytotoxicity” (Cell Discovery, 2020).

What was measured:
Assay type in all cases: cell-based
[1] = test system: Hepatocellular carcinoma cells (Hep3B, HepG2, and Huh7); test: Cell viability (cytotoxicity) assay, hepatocellular carcinoma cells; settings: Homo sapiens; 48 hours, CCK8 or Alamar Blue; curves of Fig. 1f-j; read-out: Half maximal inhibitory concentration (IC50) in cell line cytotoxicity assays, Hepatocellular Carcinoma
[2] = test system: neuroblastoma cells (CHLA-255, CHLA-136, and SMS-KNCR); test: Cell viability (cytotoxicity) assay, neuroblastoma cells; settings: Homo sapiens, 48 hours, CCK8 or Alamar Blue, curves of Fig. 1f-j, read-out: Half maximal inhibitory concentration (IC50) in cell line cytotoxicity assays, Neuroblastoma
[3] = test system: mantle cell lymphoma (Granta-519, Mino, and Jeko-1); test: Cell viability (cytotoxicity) assay, mantle cell lymphoma cells; settings: Homo sapiens; 48 hours, CCK8 or Alamar Blue; curves of Fig. 1f-j; read-out: Half maximal inhibitory concentration (IC50) in cell line cytotoxicity assays, Mantle Cell Lymphoma

Structure (SMILES): CC(=O)c1c(C)c2cnc(Nc3ccc(N4CCNCC4)cn3)nc2n(C2CCCC2)c1=O [Palbociclib, reference compound]
- IC50 [1]: 11.9 µM
- IC50 [2]: 9.2 µM
- IC50 [3]: 8.4 µM
